Data: PMC6434189, “Peperomin E and its orally bioavailable analog induce oxidative stress-mediated apoptosis of acute myeloid leukemia progenitor cells by targeting thioredoxin reductase” (Redox Biology, 2019)
Read-outs that look alike come from different tables or passages of the source.

Columns and labels:
[1] = molecular target: T1, TrxR1 in KG-1a CD34+ cells (Homo sapiens, UniProt Q16881); test: Imaging TrxR1 activity in cells with TR-green; assay type: cell-based; conditions: 2 and 6 μM, dose-dependent
T1 construct: image TrxR activity in intact isolated KG-1a CD34^+ cells; endogenous in cells; host or cells: KG-1a CD34+ cells
T1 sequence (Q16881 1-499 isoform Q16881-5): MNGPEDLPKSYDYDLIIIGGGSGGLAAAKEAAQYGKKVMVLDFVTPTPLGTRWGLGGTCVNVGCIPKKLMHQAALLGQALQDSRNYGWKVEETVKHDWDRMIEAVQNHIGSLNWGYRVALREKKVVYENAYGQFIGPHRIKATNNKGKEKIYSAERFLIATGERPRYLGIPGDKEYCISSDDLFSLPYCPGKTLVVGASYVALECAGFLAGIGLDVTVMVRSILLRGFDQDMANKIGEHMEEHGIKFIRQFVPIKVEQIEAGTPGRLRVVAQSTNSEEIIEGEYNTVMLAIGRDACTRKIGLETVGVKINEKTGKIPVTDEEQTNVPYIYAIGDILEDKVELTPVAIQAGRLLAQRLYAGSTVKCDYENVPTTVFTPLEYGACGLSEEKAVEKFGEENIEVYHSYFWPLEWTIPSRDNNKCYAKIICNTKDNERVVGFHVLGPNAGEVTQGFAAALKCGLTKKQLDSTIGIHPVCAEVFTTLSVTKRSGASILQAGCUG
Protocol: The specific fluorescence probe of TrxR – TR-green was employed to image TrxR activity in intact isolated KG-1a CD34^+ cells using previously published methods. Briefly, KG-1a CD34^+ cells (5 × 10^5) were incubated with 2 μM and 6 μM PepE or DMAPE (Previously reported TrxR1 inhibitor Parthenolide was used as the positive control, 0.1% DMSO was used as the negative control) in 6-well plates for 12 h, then 10 μM TR-green was added to each plate and incubated at 37 °C for 3 h. Fluorescence and brightfield images were captured using an inverted fluorescence microscope IX-73 (Olympus) with Metamorph software (Molecular Devices).

[2] = Pharmacokinetic study of DMAPE in rats; assay type: in vivo, Sprague–Dawley rats; conditions: for MRT last: read-out: MRT 0-t; for MRT inf: read-out: MRT 0-∞
Text: The UFLC-MS/MS system consisted of a Prominence™ UFLC system (Shimadzu, Kyoto, Japan) coupled with a QTRAP™ 5500 MS/MS system (Applied Biosystems/MDS SCIEX, Foster City, CA, USA) and controlled by the Analyst 1.5.2 software. MS‐grade methanol and acetonitrile were purchased from Merck (Darmstadt, Germany). Ultra‐pure water was generated using a MilliQ™ direct water purification system (Merck–Millipore, Billerica, MA, USA). The mass spectra and chromatographic conditions, method validations, standard and sample preparation for simultaneous determination of DMAPE and its parent drug PepE in rat plasma are provided in the Additional method in Supplementary Materials.
Male Sprague–Dawley rats weighing 200 ± 20 g were supplied by the Qinglongshan Experimental Animal Breeding Company (Nanjing, China). The experiment protocol was approved by the Animal Ethics Committee of Nanjing University of Chinese Medicine (Nanjing, China). The rats were housed under controlled environmental conditions (temperature 25 ± 2 °C, relative humidity 50 ± 10%) with free access to standard laboratory food and water. Before drug administration, the rats were randomly divided into two groups (eight rats per group) and fasted for 12 h with access to water. DMAPE phosphate salt aqueous solution was i. g. (50 mg/kg) or i. v. (50 mg/kg) administrated. Blood samples were collected from the tail vein into heparinized Eppendorf tubes using lithium heparin‐containing microvettes. The plasma was obtained by centrifugation of the blood at 5000 rpm for 10 min and then frozen at −20 °C until analysis. Pharmacokinetic parameters were calculated using the DAS 2.1.1 software (Pharmacological Society of China, China) using non-compartmental analysis.

primary CD34+ AML cells = test: CCK-8 cell viability assay on primary CD34+ AML cells; assay type: cell-based, human; conditions: for viability at 6 µM: Homo sapiens, 48 h, CCK-8, read-out: cells viable (average)
Protocol: The mononuclear cells were further enriched for CD34 positive cells using the MACS CD34 MicroBead kit following the manufacturer's protocol. Enriched CD34 cell-purity was measured by flow cytometry-based quantification of cells stained using an anti-CD34-FITC antigen. Isolated CD34^+ cells were pre-incubated in the IMDM-based serum-free media for 1 h before the addition of drugs. PepE was dissolved in DMSO to make a 100 mM stock solution and stored in aliquots at – 20 °C. The 100 mM stock solution was diluted with DMSO to 10 mM and then diluted with PBS to 1 mM before treating the cells at the indicated concentrations. DMAPE and Ara-C were diluted in PBS to 1 mM concentration before use.
Unless otherwise mentioned, 2 × 10^4 cells were seeded at 96-well plates (Corning, New York, USA) in the IMDM-based serum-free media for 1 h. Then, the cells were incubated with different concentrations of PepE and DMAPE at 37 °C in a 5% CO2 incubator for 48 h. At the end of the treatment, 10 μL CCK-8 solution was added to each well and incubated for an additional 2 h at 37 °C, and the absorbance at 450 nm was measured with a microplate reader (Thermo Scientific, Multiskan GO, Finland). Inhibition ratio (%) was calculated as [(absorbance of control − absorbance of the test sample)/absorbance of control] x 100%.

[3] = Stability of the analytes in rat plasma (UFLC-MS/MS); assay type: in vitro ADME; conditions: for Freeze-thaw 3 cycles RE (%) / Store at -20℃ for 24h RE (%) / Store at auto-sampler RE (%): rat plasma, n=6; for stability in rat plasma samples: −20 °C for 15 days, three freeze/thaw cycles, room temperature 6 h, autosampler 4 °C 12 h
KG-1a CD34+ cells = test: Intracellular ROS measurement (DCFH-DA / DHE); assay type: cell-based, human; conditions: 6 μM; blocked by NAC pretreatment
Protocol: KG-1a CD34^+ cells and other sorted primary APCs (5 × 10^5) were plated in FBS-free IMDM medium in 12-well plates (Corning) and were treated with 5 μM of Ara-C and 6 μM PepE or DMAPE in the presence or absence of 5 mM NAC for 2 h. The ROS indicator DCFH-DA (10 μM) or DHE (10 μM) in fresh FBS-free medium was added to each well, and further incubated in the dark for 30 min at 37 °C. The cells were visualized and photographed under an Olympus inverted fluorescence microscope IX-73 (Tokyo, Japan) with Metamorph software (Molecular Devices, Downingtown, PA, USA).

[4] = male, Sprague-Dawley, po, rat plasma, DMAPE 50 mg/kg intragastric
[5] = male, Sprague-Dawley, rat, plasma, po, 50 mg/kg, rat plasma, DMAPE 50 mg/kg intragastric
[6] = male, Sprague-Dawley, rat plasma, DMAPE 50 mg/kg intravenous

Compound | TR-green fluorescence intensities (cellular TrxR1 activity) [1] | AUC(0-inf) [2, 4] | AUC(0-t) [2, 4] | Cmax [2, 4] | half-life [2, 4] | MRT last [2, 4] | MRT inf [2, 4] | Tmax [2, 5] | AUC(0-inf) [2, 6] | AUC(0-t) [2, 6] | Cmax [2, 6] | clearance [2, 6] | half-life [2, 6] | MRT last [2, 6] | MRT inf [2, 6] | viability at 6 µM (primary CD34+ AML cells) | Freeze-thaw 3 cycles RE (%) ([3]; 5 ng/ml) | Store at -20℃ for 24h RE (%) ([3]; 5 ng/ml) | Store at auto-sampler RE (%) ([3]; 5 ng/ml) | Freeze-thaw 3 cycles RE (%) ([3]; 200 ng/ml) | also measured
COc1cc(C(c2cc(OC)c3c(c2)OCO3)[C@@H]2COC(=O)[C@H]2CN(C)CCO)cc2c1OCO2 [DMAPE, (2S,3S)-6-Methyl (hydroxyethyl) amino-2,6-dihydropeperomin E] | significant decrease | 25400 ± 8950 ng·h/mL | 25200 ± 8960 ng·h/mL | 5760 ± 2510 ng/mL | 4.26 ± 1.63 h | 4.9 ± 0.42 h | 5.29 ± 0.32 h | ≤ 0.85 h | 30000 ± 7010 ng·h/mL | 29900 ± 7070 ng·h/mL | 21700 ± 3590 ng/mL | 29 mL/min/kg | 4.33 ± 1.77 h | 2.61 ± 0.86 h | 2.73 ± 0.85 h | 28.9% | -13.1% | -11.0% | -11.3% | 11.2% | bioavailability ([2]; male, Sprague-Dawley, rat, plasma, oral, 50 mg/kg, rat, DMAPE 50 mg/kg intragastric vs intravenous, read-out: Bioavailability, F): 85%; CL ([2]; rat plasma, DMAPE 50 mg/kg intragastric): 35.7 ± 10.2 mL/min/kg; Store at -20℃ for 24h RE (%) ([3]; 200 ng/ml): 3.0%; Store at auto-sampler RE (%) ([3]; 200 ng/ml): -1.3%; Freeze-thaw 3 cycles RE (%) ([3]; 1000 ng/ml): -5.1%; Store at -20℃ for 24h RE (%) ([3]; 1000 ng/ml): 3.3%; Store at auto-sampler RE (%) ([3]; 1000 ng/ml): -3.7%; stability in rat plasma samples [3]: stable; ROS level by DCFH-DA staining (KG-1a CD34+ cells): burst of ROS
C=C1C(=O)OC[C@H]1C(c1cc(OC)c2c(c1)OCO2)c1cc(OC)c2c(c1)OCO2 [PepE, Peperomin E] | significant decrease | 10700 ± 2930 ng·h/mL | 10600 ± 2930 ng·h/mL | 2300 ± 270 ng/mL | 7.02 ± 1.3 h | 7.32 ± 0.82 h | 7.75 ± 0.74 h | ≤ 0.85 h | 11400 ± 3520 ng·h/mL | 11300 ± 3520 ng·h/mL | 8630 ± 2040 ng/mL | 77.5 mL/min/kg | 8.89 ± 4.8 h | 3.91 ± 1.4 h | 4.64 ± 1.88 h | 24% | -11.5% | 4.4% | -10.1% | -13.2% | Tmax ([2]; male, Sprague-Dawley, rat, plasma, iv, 50 mg/kg, rat plasma, DMAPE 50 mg/kg intravenous): 0.21 ± 0.17 h; concentration range inducing apoptosis of human primary CD34+ AML cells (primary CD34+ AML cells): 4 to 6 µM; Store at -20℃ for 24h RE (%) ([3]; 200 ng/ml): 11.9%; Store at auto-sampler RE (%) ([3]; 200 ng/ml): -10.5%; Freeze-thaw 3 cycles RE (%) ([3]; 1000 ng/ml): -3.6%; Store at -20℃ for 24h RE (%) ([3]; 1000 ng/ml): 1.7%; Store at auto-sampler RE (%) ([3]; 1000 ng/ml): -7.2%; stability in rat plasma samples [3]: stable; ROS level by DCFH-DA staining (KG-1a CD34+ cells): burst of ROS
